# Source: patent US20250243180A1, “TARGETED PROTEIN DEGRADATION” (Monte Rosa Therapeutics AG, priority 2023, published 2025)
# Like-named read-outs stand apart in the source and are kept apart here.
# Assays:
# CRBN-DDB1 = CRBN-DDB1 (Homo sapiens (Human), UniProt Q96SW2); experiment: Compound binding to CRBN by HTRF assay
# Experimental: Compound activity was monitored in a Homogenous Time-Resolved Fluorescence (HTRF) assay using 1-[5-({2-[2-(2-{[2-(2,6-dioxopiperidin-3-yl)-1,3-dioxo-2,3-dihydro-1H-isoindol-4-yl]oxy}acetamido)ethoxy]ethyl}carbamoyl)pentyl]-3,3-dimethyl-2-[(1E,3E)-5-[(2E)-1,3,3-trimethyl-5-sulfo-2,3-dihydro-1H-indol-2-ylidene]penta-1,3-dien-1-yl]-3H-indol-1-ium-5-sulfonate as a fluorescent probe. Biochemical assays were conducted in Greiner white 384 well HiBase plates (Cat. No 784075-25) in 20 μL total volume. A one pot detection solution of CRBN-DDB1 (2.5 nM), Anti-His Terbium Cryptate Gold (1×, PerkinElmer Cat. #: 61HI2TLB), and Cy5-Thalidomide (100 nM, Tenova Cat.: T52461) was prepared in 20 mM HEPES, 20 mM NaCl, 0.2 mM TCEP, 0.2 mM EDTA, and 0.005% Tween20 was dispensed to each assay plate. Compounds were stored in dry, ambient temperatures at 10 mM. An 11-point, 1:3 dilution series was prepared from 10 mM stock concentrations in Echo-compatible LDV plates. 10 nL of each compound dilution series was dispensed into assays wells using an Echo 650 (Labcyte Inc. USA). 20 nL of 10 mM Lenalidomide was transferred into the active-control wells for the assay and 20 nL of DMSO was transferred into the neutral-control wells. The assay was then allowed to incubate for 30 min at ambient temperature after transferring compound. Plate measurements were taken on a Pherastar FSX (BMG Labtech, Germany) using the HTRF Red filter (Ex. 337 nm, em1: 620 nm, em2: 665 nm) (Flashes: 50, Integration time: 60-400 us, Z-height: 10 mm, Ratio-multiplier: 10,000). The HTRF signal was then subsequently normalized to the neutral and active controls. Analysis and EC50 values were derived using KNIME analytics (KNIME Zurich) transformation and fitting within Collaborative Drug Discovery (Collaborative Drug Discovery USA). Ki was derived from the geometric mean of the EC50 values using the Cheng-Prustoff transformation.
# NEK7 = NEK7 (Homo sapiens (Human), UniProt Q8TDX7+Q96SW2); experiment: NEK7 NanoBiT degradation assay in Cal51 NEK7 NanoBiT cell line; assay type: cell-based; conditions: Cal51 NEK7 NanoBiT cells, 24 hours; for Dmax: CAL-51
# NEK7, sequence (Q8TDX7 whole entry): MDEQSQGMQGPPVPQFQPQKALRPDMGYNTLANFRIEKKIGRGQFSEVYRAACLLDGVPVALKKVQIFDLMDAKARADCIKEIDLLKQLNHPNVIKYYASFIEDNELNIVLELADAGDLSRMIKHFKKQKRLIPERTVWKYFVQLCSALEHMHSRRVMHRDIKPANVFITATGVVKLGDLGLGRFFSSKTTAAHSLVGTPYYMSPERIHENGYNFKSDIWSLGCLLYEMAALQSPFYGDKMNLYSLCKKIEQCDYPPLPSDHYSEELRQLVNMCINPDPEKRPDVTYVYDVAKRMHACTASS
# NEK7, sequence (Q96SW2 whole entry): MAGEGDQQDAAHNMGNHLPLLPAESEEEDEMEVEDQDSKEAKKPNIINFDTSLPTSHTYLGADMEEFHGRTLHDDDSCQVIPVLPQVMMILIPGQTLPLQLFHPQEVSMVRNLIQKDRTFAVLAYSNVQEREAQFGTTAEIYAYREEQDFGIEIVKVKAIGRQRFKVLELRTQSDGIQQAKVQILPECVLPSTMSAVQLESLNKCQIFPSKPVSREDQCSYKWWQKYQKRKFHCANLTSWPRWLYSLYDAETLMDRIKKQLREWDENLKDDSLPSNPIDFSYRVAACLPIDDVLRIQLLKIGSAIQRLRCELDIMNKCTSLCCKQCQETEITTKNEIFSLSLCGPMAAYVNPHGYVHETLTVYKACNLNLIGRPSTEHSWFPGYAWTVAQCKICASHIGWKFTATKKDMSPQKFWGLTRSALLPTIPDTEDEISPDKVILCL
# NEK7, sequence (Q16531 2-1140 partner): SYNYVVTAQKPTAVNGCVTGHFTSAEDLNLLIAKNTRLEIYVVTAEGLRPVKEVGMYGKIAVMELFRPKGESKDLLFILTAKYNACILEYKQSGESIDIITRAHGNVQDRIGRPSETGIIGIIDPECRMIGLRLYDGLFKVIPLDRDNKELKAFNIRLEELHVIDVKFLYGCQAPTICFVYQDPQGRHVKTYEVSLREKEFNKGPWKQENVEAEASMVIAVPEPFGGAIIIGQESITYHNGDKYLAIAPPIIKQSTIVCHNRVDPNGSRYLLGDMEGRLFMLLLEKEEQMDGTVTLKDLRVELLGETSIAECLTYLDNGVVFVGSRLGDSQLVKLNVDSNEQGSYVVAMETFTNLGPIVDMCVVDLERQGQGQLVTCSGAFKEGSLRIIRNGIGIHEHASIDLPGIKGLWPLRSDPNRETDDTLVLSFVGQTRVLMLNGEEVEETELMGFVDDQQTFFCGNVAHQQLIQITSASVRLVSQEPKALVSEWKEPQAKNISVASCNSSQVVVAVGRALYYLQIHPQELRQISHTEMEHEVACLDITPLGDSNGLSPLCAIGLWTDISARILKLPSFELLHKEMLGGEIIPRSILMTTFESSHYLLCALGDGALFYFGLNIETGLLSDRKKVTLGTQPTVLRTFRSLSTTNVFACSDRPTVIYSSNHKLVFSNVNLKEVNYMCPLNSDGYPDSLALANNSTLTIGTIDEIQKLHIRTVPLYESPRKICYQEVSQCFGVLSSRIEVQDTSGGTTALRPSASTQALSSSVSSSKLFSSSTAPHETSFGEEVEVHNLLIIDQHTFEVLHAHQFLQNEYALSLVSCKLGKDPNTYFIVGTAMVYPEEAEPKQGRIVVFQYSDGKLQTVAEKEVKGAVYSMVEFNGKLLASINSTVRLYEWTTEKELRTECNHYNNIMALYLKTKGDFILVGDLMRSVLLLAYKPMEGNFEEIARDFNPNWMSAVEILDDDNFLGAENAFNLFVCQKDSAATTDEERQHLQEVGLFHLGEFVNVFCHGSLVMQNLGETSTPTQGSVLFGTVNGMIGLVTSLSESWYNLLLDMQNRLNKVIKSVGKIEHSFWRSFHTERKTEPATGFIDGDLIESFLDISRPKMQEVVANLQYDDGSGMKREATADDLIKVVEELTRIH
# Experimental: Cal51 NEK7 NanoBiT cell line was generated via CRISPR Knock-In of the HiBiT tag in NEK7 gene and stable infection with a lentivirus carrying LgBiT protein. The cell line was generated in house. For the experiment, cells were plated in 384-well white flat bottom plates (Corning, 3570BC) at 2500 cells per well using Multiflo (BioTek/Agilent) and in 25 μl volume in DMEM experimental medium: DMEM (DMEM, high glucose, HEPES, no phenol red (ThermoFisher Scientific, 21063029) supplemented with 10% FBS (Corning, 35-075-CV), 1% Penicillin/Streptomycin ((ThermoFisher Scientific, 15140-122), and 1% Endurazine (Nano-Glo Endurazine Live Cell Substrate (Promega, N2571)). Cells were incubated for 16 hours at 37° C., 5% CO2 before compound addition. For dose response determination, 2.5 nL of a compound at different concentrations (stock compound concentration range: 10 mM to 0.5 μM, final concentration range inside cell plate: 1 μM to 0.05 nM) were dispensed into the plate using an Echo® 650 liquid handling device (Backman Coulter/Labcyte). Cells were incubated at 37° C., 5% CO2 for 24 hours and then signal was read on a Pherastar FSX using “LUM plus” optic module with 4095 gain and measurement interval time 0.2 seconds.
# Analysis was performed in Genedata Screener (Genedata, Basel, CH). Luminescence response (R) was calculated by the formula: response=100*(S−N)/(P−N) where S is the signal of the well, N and P the mean negative and positive control values respectively of the same plate. The luminescence response was then fitted in Genedata using a 4-parameter antagonist logistic fit (hill slope unconstrained, EC50>0, top/bottom unconstrained).
# [1] = NEK7 degradation, read-out: NanoBiT Dmax
# [2] = NEK7 degradation, read-out: NanoBiT DC50
# CRBN-DDB1, sequence (Q96SW2 whole entry): as the sequence (Q96SW2 whole entry) above
# CRBN-DDB1, sequence (Q16531 whole entry partner): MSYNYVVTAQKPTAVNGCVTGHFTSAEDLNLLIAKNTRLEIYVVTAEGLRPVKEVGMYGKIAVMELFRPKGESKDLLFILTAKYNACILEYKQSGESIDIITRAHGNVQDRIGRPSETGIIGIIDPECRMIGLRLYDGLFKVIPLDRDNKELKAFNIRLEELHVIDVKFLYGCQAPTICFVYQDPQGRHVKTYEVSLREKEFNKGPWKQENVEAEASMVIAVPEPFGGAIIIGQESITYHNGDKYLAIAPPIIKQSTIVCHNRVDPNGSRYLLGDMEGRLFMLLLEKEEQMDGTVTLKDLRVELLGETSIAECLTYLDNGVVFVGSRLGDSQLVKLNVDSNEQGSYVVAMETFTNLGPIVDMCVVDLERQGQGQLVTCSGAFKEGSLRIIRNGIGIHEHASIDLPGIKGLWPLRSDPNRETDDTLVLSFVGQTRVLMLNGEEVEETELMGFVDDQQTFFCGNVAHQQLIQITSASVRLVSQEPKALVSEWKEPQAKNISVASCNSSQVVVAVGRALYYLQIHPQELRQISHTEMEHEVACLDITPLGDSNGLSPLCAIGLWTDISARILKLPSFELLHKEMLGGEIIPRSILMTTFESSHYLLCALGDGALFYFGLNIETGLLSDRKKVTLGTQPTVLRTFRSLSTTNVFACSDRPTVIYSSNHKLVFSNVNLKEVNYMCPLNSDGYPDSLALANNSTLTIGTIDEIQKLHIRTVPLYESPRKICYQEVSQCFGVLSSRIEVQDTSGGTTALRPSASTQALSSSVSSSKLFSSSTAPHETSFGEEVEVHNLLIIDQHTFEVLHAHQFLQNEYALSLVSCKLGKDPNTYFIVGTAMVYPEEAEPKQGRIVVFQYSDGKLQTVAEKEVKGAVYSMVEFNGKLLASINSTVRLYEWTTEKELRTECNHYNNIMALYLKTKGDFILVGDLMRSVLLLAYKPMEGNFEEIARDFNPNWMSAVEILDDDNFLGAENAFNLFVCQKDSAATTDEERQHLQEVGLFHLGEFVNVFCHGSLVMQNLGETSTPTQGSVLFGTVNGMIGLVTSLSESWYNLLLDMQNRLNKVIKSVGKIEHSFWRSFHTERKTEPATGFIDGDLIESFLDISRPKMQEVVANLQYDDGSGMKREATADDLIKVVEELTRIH
Compound,EC50 (CRBN-DDB1),"EC50 (CRBN-DDB1; HTRF class, Cereblon binding)",Dmax (NEK7; read-out: NEK7 NanoBiT Dmax),Dmax (NEK7; [1]),DC50 (NEK7; read-out: NEK7 NanoBiT DC50),DC50 (NEK7; [2])
CC(C)(C(=O)NCc1cc(Cl)c(C2CCC(=O)NC2=O)c(Cl)c1)c1cccc(S(C)(=O)=O)c1 (stereo not drawn) [Compound 62],50 nM,≤ 100 nM,96%,> 75%,2 nM,≤ 100 nM
CC(C)(C(=O)NCc1ccc(C2CCC(=O)NC2=O)c(Cl)c1)c1cnc(F)nc1 (stereo not drawn) [Compound 3],500 nM,100 to 1000 nM,65%,50 to 75%,242 nM,100 to 1000 nM
COCc1cnc(C(C)(C)C(=O)NCc2cc(Cl)c(C3CCC(=O)NC3=O)c(Cl)c2)nc1 (stereo not drawn) [Compound 183],370 nM,100 to 1000 nM,71%,50 to 75%,56 nM,≤ 100 nM
"O=C1CCC(c2c(Cl)cc(CNC(=O)C3(c4ccncc4)CCCC3)cc2Cl)C(=O)N1 (stereo not drawn) [Compound 143, N-(3,5-dichloro-4-(2,6-dioxopiperidin-3-yl)benzyl)-1-(pyridin-4-yl)cyclopentane-1-carboxamide]",40 nM,≤ 100 nM,92%,> 75%,3 nM,≤ 100 nM
COc1ccc(C(C)(C)C(=O)NCc2cc(Cl)c(C3CCC(=O)NC3=O)c(Cl)c2)nn1 (stereo not drawn) [Compound 204],80 nM,≤ 100 nM,98%,> 75%,1 nM,≤ 100 nM
"CC(C)(C(=O)NCc1cc(Cl)c(C2CCC(=O)NC2=O)c(Cl)c1)c1ncc(C(=O)O)cn1 (stereo not drawn) [Compound 235, 2-(1-((3,5-dichloro-4-(2,6-dioxopiperidin-3-yl)benzyl)amino)-2-methyl-1-oxopropan-2-yl)pyrimidine-5-carboxylic acid]",560 nM,100 to 1000 nM,11%,≤ 50%,1000 nM,> 1000 nM
CC(C)(C(=O)NCc1cc(Cl)c(C2CCC(=O)NC2=O)c(Cl)c1)c1cccc(F)c1 (stereo not drawn) [Compound 27],50 nM,≤ 100 nM,96%,> 75%,1 nM,≤ 100 nM
"CC(C)(C(=O)NCc1cc(Cl)c(C2CCC(=O)NC2=O)c(Cl)c1)c1ccc(C#N)cn1 (stereo not drawn) [Compound 15, 2-(5-cyanopyridin-2-yl)-N-(3,5-dichloro-4-(2,6-dioxopiperidin-3-yl)benzyl)-2-methylpropanamide]",120 nM,100 to 1000 nM,95%,> 75%,4 nM,≤ 100 nM
CC(C)(C(=O)NCc1cc(Cl)c(C2CCC(=O)NC2=O)c(Cl)c1)c1nccc(C2CC2)n1 (stereo not drawn) [Compound 168],150 nM,100 to 1000 nM,57%,50 to 75%,137 nM,100 to 1000 nM
"Cc1cc(C(C)(C)C(=O)NCc2cc(Cl)c(C3CCC(=O)NC3=O)c(Cl)c2)cc(=O)[nH]1 (stereo not drawn) [Compound 42, N-(3,5-dichloro-4-(2,6-dioxopiperidin-3-yl)benzyl)-2-methyl-2-(6-methyl-2-oxo-1,2-dihydropyridin-4-yl)propanamide]",180 nM,100 to 1000 nM,93%,> 75%,20 nM,≤ 100 nM
CC(C)(C(=O)NCc1cc(Cl)c(C2CCC(=O)NC2=O)c(Cl)c1)c1ccc(C(N)=O)c(F)c1 (stereo not drawn) [Compound 57],130 nM,100 to 1000 nM,94%,> 75%,3 nM,≤ 100 nM
CC(C)(C(=O)NCc1cc(Cl)c(C2CCC(=O)NC2=O)c(Cl)c1)c1ncc(C2COC2)cn1 (stereo not drawn) [Compound 178],290 nM,100 to 1000 nM,66%,50 to 75%,95 nM,≤ 100 nM
